Reference: patent publication US11512053B2, “Arginine methyltransferase inhibitors and uses thereof” (priority 2013, dated 2022)

Target: full-length human PRMT8 isoform 1 (Homo sapiens, UniProt Q9NR22)
Assay: PRMT8 Biochemical Assay (3H-SAM Flashplate, peptide substrate)
Settings: single experiment or average of multiple experiments; read-out: Biochemical IC50 PRMT8
Method in brief: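 Full-length human PRMT8 (1.5 nM, E. coli-expressed, GST removed) preincubated 30 min at room temperature with compound, then reacted with 50 nM 3H-SAM plus 550 nM cold SAM and 150 nM biotinylated H4 31-45 peptide in 20 mM Bicine pH 7.6, 1 mM TCEP, 0.005% BSG, 0.002% Tween 20, 2% DMSO. Quenched with 400 uM cold SAM; labelled peptide captured on streptavidin Flashplate, % inhibition versus 1 mM SAH and DMSO controls fitted to 4- or 3-parameter curve.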

Sequence of full-length human PRMT8 isoform 1 (Q9NR22 whole entry, canonical isoform): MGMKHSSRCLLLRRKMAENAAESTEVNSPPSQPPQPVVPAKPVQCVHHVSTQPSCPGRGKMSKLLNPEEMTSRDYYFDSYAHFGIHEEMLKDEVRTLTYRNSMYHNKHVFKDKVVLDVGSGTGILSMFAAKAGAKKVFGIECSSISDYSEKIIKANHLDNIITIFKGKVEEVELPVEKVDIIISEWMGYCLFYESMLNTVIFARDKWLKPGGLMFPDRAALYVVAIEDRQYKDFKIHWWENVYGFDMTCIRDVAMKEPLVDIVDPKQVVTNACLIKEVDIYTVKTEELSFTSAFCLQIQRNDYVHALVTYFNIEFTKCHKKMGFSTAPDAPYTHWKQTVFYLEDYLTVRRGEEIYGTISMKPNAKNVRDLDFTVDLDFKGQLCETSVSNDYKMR

## CNCCN(C)Cc1c[nH]nc1C#Cc1ccccc1 [Compound 3]
  IC50: 0.95 µM
